Data as given in patent US9896441B2 (Lycera Corporation, priority 2014, dated 2018).

Assays:
RORγ-LBD = target: T1, RORγ-LBD (Homo sapiens, UniProt P51449); experiment: RORγ-Ligand Binding Domain (LBD) TR-FRET Assay; type: biochemical; conditions: RORγ-LBD TR-FRET
T1 construct: made in house; host or cells: SF9 cells (baculovirus); used as diluted lysate
T1 sequence (P51449 269-508 limits assumed): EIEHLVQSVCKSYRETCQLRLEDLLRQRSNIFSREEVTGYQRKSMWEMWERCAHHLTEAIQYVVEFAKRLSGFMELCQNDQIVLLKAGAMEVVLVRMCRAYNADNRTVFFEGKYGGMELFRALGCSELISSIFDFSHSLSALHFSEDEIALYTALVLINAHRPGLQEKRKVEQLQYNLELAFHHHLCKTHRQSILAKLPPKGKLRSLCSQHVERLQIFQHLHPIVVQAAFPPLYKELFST
Outline: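 His-tagged RORγ-LBD from SF9 baculovirus lysate, ~3 nM final, in 50 mM Tris pH 7.0, 50 mM KCl, 1 mM EDTA, 0.1 mM DTT, 0.01% BSA. Biotinylated SRC1 LXXLL peptide at 200 nM final with 2 μM ursolic acid; TR-FRET read-out, 1% DMSO final.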

Gal4-RORγ-LBD = target: T2, Gal4-RORγ-LBD (Homo sapiens, UniProt P51449); experiment: Gal4-RORγ Luciferase Reporter Assay in HEK-293T Cells; type: cell-based; conditions: HEK-293 cells, luciferase reporter, with ursolic acid
T2 construct: expressed in transfected cells
T2 sequence (P51449 269-508 limits assumed): T1 sequence (P51449 269-508 limits assumed)
Outline: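 HEK-293 cells were co-transfected with Gal4-RORγ-LBD and a Gal4-luciferase reporter, then exposed overnight at 37 °C to compounds with […] ursolic acid present (0.2% DMSO). Luminescence was read with One-Glo after 10 min at RT, untreated signal was set as 100, and Max Response was taken as the upper plateau of a 4-parameter logistic fit.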

| Compound | EC50 (RORγ-LBD) [nM] | EC50 (Gal4-RORγ-LBD) [nM] |
| --- | --- | --- |
| C/C(=C\c1ccc2c(c1)N(S(=O)(=O)c1cccc(C(C)C)c1)C[C@H](CCC(=O)O)O2)c1c(F)cccc1Cl [Example 86Q, (S,E)-3-(6-(2-(2-chloro-6-fluorophenyl)prop-1-en-1-yl)-4-((3-isopropylphenyl)sulfonyl)-3,4-dihydro-2H-benzo[b][1,4]oxazin-2-yl)propanoic acid] | < 500 | < 500 |
| COC(=O)CC[C@H]1CN(S(=O)(=O)c2cccc(C(C)C)c2)c2cc(/C=C(\C)c3c(F)cccc3Cl)ccc2O1 [Example 86R, (S,E)-methyl 3-(6-(2-(2-chloro-6-fluorophenyl)prop-1-en-1-yl)-4-((3-isopropylphenyl)sulfonyl)-3,4-dihydro-2H-benzo[b][1,4]oxazin-2-yl)propanoate] | < 500 | < 500 |
| C/C(=C\c1ccc2c(c1)N(S(=O)(=O)c1cccc(OC(F)(F)F)c1)C[C@H](CCC(=O)O)O2)c1c(F)cccc1Cl [Example 86S, (S,E)-3-(6-(2-(2-chloro-6-fluorophenyl)prop-1-en-1-yl)-4-((3-(trifluoromethoxy)phenyl)-sulfonyl)-3,4-dihydro-2H-benzo[b][1,4]oxazin-2-yl)propanoic acid] | < 500 | 500 to 5000 |
| COC(=O)CC[C@H]1CN(S(=O)(=O)c2cccc(OC(F)(F)F)c2)c2cc(/C=C(\C)c3c(F)cccc3Cl)ccc2O1 [Example 86T, (S,E)-methyl 3-(6-(2-(2-chloro-6-fluorophenyl)prop-1-en-1-yl)-4-((3-(trifluoromethoxy)phenyl)-sulfonyl)-3,4-dihydro-2H-benzo[b][1,4]oxazin-2-yl)propanoate] | < 500 | 500 to 5000 |
| C/C(=C\c1ccc2c(c1)N(S(=O)(=O)c1c(Cl)nc3sccn13)C[C@H](CCC(=O)O)O2)c1c(F)cccc1Cl [Example 86U, (S,E)-3-(6-(2-(2-chloro-6-fluorophenyl)prop-1-en-1-yl)-4-((6-chloroimidazo[2,1-b]thiazol-5-yl)sulfonyl)-3,4-dihydro-2H-benzo[b][1,4]oxazin-2-yl)propanoic acid] | < 500 | 500 to 5000 |
| COC(=O)CC[C@H]1CN(S(=O)(=O)c2c(Cl)nc3sccn23)c2cc(/C=C(\C)c3c(F)cccc3Cl)ccc2O1 [Example 86V, (S)-methyl 3-(6-(2-(2-chloro-6-fluorophenyl)prop-1-en-1-yl)-4-((6-chloroimidazo[2,1-b]thiazol-5-yl)sulfonyl)-3,4-dihydro-2H-benzo[b][1,4]oxazin-2-yl)propanoate] | < 500 | 500 to 5000 |
| C/C(=C\c1ccc2c(c1)N(S(=O)(=O)c1cn(C(F)F)nc1C)C[C@H](CCC(=O)O)O2)c1c(F)cccc1Cl [Example 86W, (S,E)-3-(6-(2-(2-chloro-6-fluorophenyl)prop-1-en-1-yl)-4-((1-(difluoromethyl)-3-methyl-1H-pyrazol-4-yl)sulfonyl)-3,4-dihydro-2H-benzo[b][1,4]oxazin-2-yl)propanoic acid] | < 500 | > 10000 |
| COC(=O)CC[C@H]1CN(S(=O)(=O)c2cn(C(F)F)nc2C)c2cc(/C=C(\C)c3c(F)cccc3Cl)ccc2O1 [Example 86X, (S)-methyl 3-(6-(2-(2-chloro-6-fluorophenyl)prop-1-en-1-yl)-4-((1-(difluoromethyl)-3-methyl-1H-pyrazol-4-yl)sulfonyl)-3,4-dihydro-2H-benzo[b][1,4]oxazin-2-yl)propanoate] | < 500 | 500 to 5000 |
| COC(=O)CC[C@H]1CN(S(=O)(=O)c2cccc(C(F)(F)F)c2)c2cc(/C=C(\C)c3ccccc3Cl)ccc2O1 [Example 86Z, (S,E)-methyl 3-(6-(2-(2-chlorophenyl)prop-1-en-1-yl)-4-((3-(trifluoromethyl)phenyl)-sulfonyl)-3,4-dihydro-2H-benzo[b][1,4]oxazin-2-yl)propanoate] | < 500 | < 500 |
